Source: patent US8178506B2, “Oligomeric compounds and compositions for use in modulation of small non-coding RNAs” (Regulus Therapeutics Inc., priority 2003, dated 2012)
In the oligonucleotide strings, read from the 5' end, every base follows the letter of its sugar. An asterisk marks phosphorothioate; unmarked linkages are phosphodiester. Other units and linkages are bracketed, terminal groups are in braces. A string of capitals states the bases alone. e = 2'-O-(2-methoxyethyl) (MOE); [5mC] = 5-methylcytosine

Assays:
[1] = tested on: aP2; test: aP2 mRNA expression in adipocytes (real-time PCR); format: cell-based, human; conditions: differentiating adipocytes transfected with oligomeric compound; Table 75
[2] = tested on: HSL; test: HSL mRNA expression in adipocytes (real-time PCR); format: cell-based, human; conditions: differentiating adipocytes transfected with oligomeric compound; Table 75
[3] = tested on: Glut4; test: Glut4 mRNA expression in adipocytes (real-time PCR); format: cell-based, human; conditions: differentiating adipocytes transfected with oligomeric compound; Table 75
[4] = tested on: PPARγ; test: PPARγ mRNA expression in adipocytes (real-time PCR); format: cell-based, human; conditions: differentiating adipocytes transfected with oligomeric compound; Table 75
[5] = tested on: PEPCK-c; test: PEPCK-c mRNA expression in HepG2 cells; format: cell-based, human; conditions: for PEPCKc mRNA: HepG2 cells, Experiment 1, basal (no insulin), four hours, UTC = 100; for PEPCKc mRNA expression: Experiment 2, insulin treated: HepG2 cells transfected with oligomeric compound, 1 nM insulin for four hours, UTC + 1 nM insulin = 100
[6] = tested on: IGFBP-1; test: IGFBP-1 mRNA expression in HepG2 cells; format: cell-based, human; conditions: for IGFBP1 mRNA: HepG2 cells, Experiment 1, basal (no insulin), four hours, UTC = 100; for IGFBP1 mRNA expression: Experiment 2, insulin treated: HepG2 cells transfected with oligomeric compound, 1 nM insulin for four hours, UTC + 1 nM insulin = 100
[7] = tested on: follistatin; test: Follistatin mRNA expression in HepG2 cells; format: cell-based, human; conditions: for Follistatin mRNA: HepG2 cells, Experiment 1, basal (no insulin), four hours, UTC = 100; for Follistatin mRNA expression: Experiment 2, insulin treated: HepG2 cells transfected with oligomeric compound, 1 nM insulin for four hours, UTC + 1 nM insulin = 100
[8] = tested on: HuVECs; test: Endothelial tube formation assay in HuVECs; conditions: 75 nM oligomeric compound

## 327873 (antisense e[5mC]*eT*eA*e[5mC]*e[5mC]*eA*eT*eA*eG*eG*eG*eT*eA*eA*eA*eA*e[5mC]*e[5mC]*eA*e[5mC]*eT) [compound 327873]
[1]
  aP2 mRNA: 113 percentage of untreated control (UTC)
[2]
  HSL mRNA: 116 percentage of untreated control (UTC)
[3]
  GLUT4 mRNA: 106 percentage of untreated control (UTC)
[4]
  PPAR gamma mRNA: 104 percentage of untreated control (UTC)
[5]
  PEPCKc mRNA: 72
[6]
  IGFBP1 mRNA: 108
[7]
  Follistatin mRNA: 97
[8]; Table 56
  % Activity Relative to UTC (tube formation): 100.0%

## 327924 (antisense eG*e[5mC]*eA*eA*eG*e[5mC]*e[5mC]*e[5mC]*eA*eG*eA*e[5mC]*e[5mC]*eG*e[5mC]*eA*eA*eA*eA*eA*eG) [compound 327924]
[8]; Table 58
  % Activity Relative to UTC (tube formation): 88.9%

## 327935 (antisense e[5mC]*eT*eA*e[5mC]*e[5mC]*eT*eG*e[5mC]*eA*e[5mC]*eT*eA*eT*eA*eA*eG*e[5mC]*eA*e[5mC]*eT*eT*eT*eA) [compound 327935]
[1]
  aP2 mRNA: 60 percentage of untreated control (UTC)
[2]
  HSL mRNA: 61 percentage of untreated control (UTC)
[3]
  GLUT4 mRNA: 47 percentage of untreated control (UTC)
[4]
  PPAR gamma mRNA: 67 percentage of untreated control (UTC)
[8]; Table 58
  % Activity Relative to UTC (tube formation): 74.1%

## 327936 (antisense eA*e[5mC]*eA*eG*e[5mC]*eT*eG*eG*eT*eT*eG*eA*eA*eG*eG*eG*eG*eA*e[5mC]*e[5mC]*eA*eA) [compound 327936]
[1]
  aP2 mRNA: 40 percentage of untreated control (UTC)
[2]
  HSL mRNA: 40 percentage of untreated control (UTC)
[3]
  GLUT4 mRNA: 6 percentage of untreated control (UTC)
[4]
  PPAR gamma mRNA: 47 percentage of untreated control (UTC)
[8]; Table 58
  % Activity Relative to UTC (tube formation): 51.9%

## 327940 (antisense eG*eA*eA*e[5mC]*eA*eG*eG*eT*eA*eG*eT*e[5mC]*eT*eG*eA*eA*e[5mC]*eA*e[5mC]*eT*eG*eG*eG) [compound 327940]
[1]
  aP2 mRNA: 62 percentage of untreated control (UTC)
[2]
  HSL mRNA: 67 percentage of untreated control (UTC)
[3]
  GLUT4 mRNA: 43 percentage of untreated control (UTC)
[4]
  PPAR gamma mRNA: 64 percentage of untreated control (UTC)
[8]; Table 58
  % Activity Relative to UTC (tube formation): 59.3%

## 327944 (antisense eA*eA*eA*eG*eT*eG*eT*e[5mC]*eA*eG*eA*eT*eA*e[5mC]*eG*eG*eT*eG*eT*eG*eG) [compound 327944]
[1]
  aP2 mRNA: 71 percentage of untreated control (UTC)
[2]
  HSL mRNA: 55 percentage of untreated control (UTC)
[3]
  GLUT4 mRNA: 28 percentage of untreated control (UTC)
[4]
  PPAR gamma mRNA: 64 percentage of untreated control (UTC)
[8]; Table 58
  % Activity Relative to UTC (tube formation): 37.0%

## 327945 (antisense e[5mC]*eT*eG*eT*eT*e[5mC]*e[5mC]*eT*eG*e[5mC]*eT*eG*eA*eA*e[5mC]*eT*eG*eA*eG*e[5mC]*e[5mC]*eA) [compound 327945]
[1]
  aP2 mRNA: 43 percentage of untreated control (UTC)
[2]
  HSL mRNA: 41 percentage of untreated control (UTC)
[3]
  GLUT4 mRNA: 26 percentage of untreated control (UTC)
[4]
  PPAR gamma mRNA: 51 percentage of untreated control (UTC)
[8]; Table 58
  % Activity Relative to UTC (tube formation): 59.3%

## 327946 (antisense eA*eG*eG*e[5mC]*eG*eA*eA*eG*eG*eA*eT*eG*eA*e[5mC]*eA*eA*eA*eG*eG*eG*eA*eA) [compound 327946]
[1]
  aP2 mRNA: 73 percentage of untreated control (UTC)
[2]
  HSL mRNA: 76 percentage of untreated control (UTC)
[3]
  GLUT4 mRNA: 68 percentage of untreated control (UTC)
[4]
  PPAR gamma mRNA: 81 percentage of untreated control (UTC)
[5]
  PEPCKc mRNA expression: 99
  PEPCKc mRNA: 90
[6]
  IGFBP1 mRNA expression: 138
  IGFBP1 mRNA: 108
[7]
  Follistatin mRNA expression: 109
  Follistatin mRNA: 103
[8]; Table 58
  % Activity Relative to UTC (tube formation): 51.9%

## 327949 (antisense e[5mC]*eA*e[5mC]*eA*eA*eA*eT*eT*e[5mC]*eG*eG*eA*eT*e[5mC]*eT*eA*e[5mC]*eA*eG*eG*eG*eT*eA) [compound 327949]
[1]
  aP2 mRNA: 52 percentage of untreated control (UTC)
[2]
  HSL mRNA: 49 percentage of untreated control (UTC)
[3]
  GLUT4 mRNA: 20 percentage of untreated control (UTC)
[4]
  PPAR gamma mRNA: 54 percentage of untreated control (UTC)
[5]
  PEPCKc mRNA expression: 101
  PEPCKc mRNA: 81
[6]
  IGFBP1 mRNA expression: 172
  IGFBP1 mRNA: 112
[7]
  Follistatin mRNA expression: 111
  Follistatin mRNA: 112
[8]; Table 59
  % Activity Relative to UTC (tube formation): 66.7%

## 327950 (antisense eT*e[5mC]*eA*eG*eT*eT*eT*eT*eG*e[5mC]*eA*eT*eA*eG*eA*eT*eT*eT*eG*e[5mC]*eA*e[5mC]*eA) [compound 327950]
[1]
  aP2 mRNA: 95 percentage of untreated control (UTC)
[2]
  HSL mRNA: 94 percentage of untreated control (UTC)
[3]
  GLUT4 mRNA: 104 percentage of untreated control (UTC)
[4]
  PPAR gamma mRNA: 93 percentage of untreated control (UTC)
[5]
  PEPCKc mRNA expression: 82
  PEPCKc mRNA: 65
[6]
  IGFBP1 mRNA expression: 124
  IGFBP1 mRNA: 109
[7]
  Follistatin mRNA expression: 89
  Follistatin mRNA: 83
[8]; Table 59
  % Activity Relative to UTC (tube formation): 73.3%

## 327952 (antisense e[5mC]*eT*eA*e[5mC]*eG*e[5mC]*eG*eT*eA*eT*eT*e[5mC]*eT*eT*eA*eA*eG*e[5mC]*eA*eA*eT*eA) [compound 327952]
[1]
  aP2 mRNA: 56 percentage of untreated control (UTC)
[2]
  HSL mRNA: 64 percentage of untreated control (UTC)
[3]
  GLUT4 mRNA: 61 percentage of untreated control (UTC)
[4]
  PPAR gamma mRNA: 84 percentage of untreated control (UTC)
[5]
  PEPCKc mRNA expression: 85
  PEPCKc mRNA: 70
[6]
  IGFBP1 mRNA expression: 103
  IGFBP1 mRNA: 123
[7]
  Follistatin mRNA expression: 100
  Follistatin mRNA: 93
[8]; Table 59
  % Activity Relative to UTC (tube formation): 53.3%

## 327957 (antisense e[5mC]*eA*e[5mC]*eA*eA*eG*eT*eT*e[5mC]*eG*eG*eA*eT*e[5mC]*eT*eA*e[5mC]*eG*eG*eG*eT*eT) [compound 327957]
[1]
  aP2 mRNA: 23 percentage of untreated control (UTC)
[2]
  HSL mRNA: 15 percentage of untreated control (UTC)
[3]
  GLUT4 mRNA: 11 percentage of untreated control (UTC)
[4]
  PPAR gamma mRNA: 68 percentage of untreated control (UTC)
[5]
  PEPCKc mRNA expression: 88
  PEPCKc mRNA: 59
[6]
  IGFBP1 mRNA expression: 184
  IGFBP1 mRNA: 143
[7]
  Follistatin mRNA expression: 73
  Follistatin mRNA: 69
[8]; Table 59
  % Activity Relative to UTC (tube formation): 66.7%

## 327958 (antisense e[5mC]*e[5mC]*eG*eG*e[5mC]*eT*eG*e[5mC]*eA*eA*e[5mC]*eA*e[5mC]*eA*eA*eG*eA*e[5mC]*eA*e[5mC]*eG*eA) [compound 327958]
[1]
  aP2 mRNA: 10 percentage of untreated control (UTC)
[2]
  HSL mRNA: 5 percentage of untreated control (UTC)
[3]
  GLUT4 mRNA: 5 percentage of untreated control (UTC)
[4]
  PPAR gamma mRNA: 55 percentage of untreated control (UTC)
[5]
  PEPCKc mRNA expression: 106
  PEPCKc mRNA: 73
[6]
  IGFBP1 mRNA expression: 149
  IGFBP1 mRNA: 119
[7]
  Follistatin mRNA expression: 112
  Follistatin mRNA: 91
[8]; Table 59
  % Activity Relative to UTC (tube formation): 40.0%

## 327959 (antisense e[5mC]*eA*eG*e[5mC]*e[5mC]*eG*e[5mC]*eT*eG*eT*e[5mC]*eA*e[5mC]*eA*e[5mC]*eG*e[5mC]*eA*e[5mC]*eA*eG) [compound 327959]
[1]
  aP2 mRNA: 24 percentage of untreated control (UTC)
[2]
  HSL mRNA: 11 percentage of untreated control (UTC)
[3]
  GLUT4 mRNA: 152 percentage of untreated control (UTC)
[4]
  PPAR gamma mRNA: 65 percentage of untreated control (UTC)
[5]
  PEPCKc mRNA expression: 156
  PEPCKc mRNA: 139
[6]
  IGFBP1 mRNA expression: 141
  IGFBP1 mRNA: 124
[7]
  Follistatin mRNA expression: 92
  Follistatin mRNA: 98
[8]; Table 59
  % Activity Relative to UTC (tube formation): 40.0%

## 327961 (antisense eG*eG*eG*eG*eT*eA*eT*eT*eT*eG*eA*e[5mC]*eA*eA*eA*e[5mC]*eT*eG*eA*e[5mC]*eA) [compound 327961]
[1]
  aP2 mRNA: 91 percentage of untreated control (UTC)
[2]
  HSL mRNA: 88 percentage of untreated control (UTC)
[3]
  GLUT4 mRNA: 101 percentage of untreated control (UTC)
[4]
  PPAR gamma mRNA: 95 percentage of untreated control (UTC)
[5]
  PEPCKc mRNA expression: 126
  PEPCKc mRNA: 98
[6]
  IGFBP1 mRNA expression: 160
  IGFBP1 mRNA: 150
[7]
  Follistatin mRNA expression: 128
  Follistatin mRNA: 113
[8]; Table 59
  % Activity Relative to UTC (tube formation): 53.3%

## 327971 (antisense eG*eG*eA*eA*eA*eT*e[5mC]*e[5mC]*e[5mC]*eT*eG*eG*e[5mC]*eA*eA*eT*eG*eT*eG*eA*eT) [compound 327971]
[1]
  aP2 mRNA: 49 percentage of untreated control (UTC)
[2]
  HSL mRNA: 38 percentage of untreated control (UTC)
[3]
  GLUT4 mRNA: 60 percentage of untreated control (UTC)
[4]
  PPAR gamma mRNA: 69 percentage of untreated control (UTC)

## CTAGTGGTCCTAAACATTTCAC (chemistry not given here) [ISIS 327878, uniform 2′-MOE PS; targets mir-203]
[5]; HepG2, 1 nM insulin, 100 nM
  reduction of PEPCK-c mRNA expression: 71%
[5]; HepG2, basal (no insulin), 100 nM
  decrease in PEPCK-c mRNA: 55%
